Read-outs that look alike come from different tables or passages of the source.
How the values were obtained:
[1] = tested on: Sphaerechinus granularis embryos; settings: cited from earlier work
[2] = tested on: Paracentrotus lividus embryos; assay: Embryotoxicity test: percentage of hatched sea urchin larvae after 24 hours; format: in vivo; settings: for Effect on the transition to swimming blastula / larval stage: in vivo; for Concentration of total inhibition of hatching viability (0% of hatched larvae) / Hatching viability: 24 hours; for Hatching viability: at concentrations of circa 3.0 μM
Experimental: (§1) Paracentrotus lividus (Lamarck) sea urchins were collected during the breeding season by SCUBA diving in the Gulf of Naples and transported in an insulated box to the laboratory, within 1 h after collection, and maintained in captivity in well-aerated water at 18 °C in an open circuit. Living organisms were injected with 0.2 mL of 0.2 M acetylcholine (SIGMA-Aldrich, Milan, Italy) through the peribuccal membrane to induce gamete ejection. Spawned eggs were allowed to settle and were washed three times with 0.22 micron filtered sea water (FSW); eggs were then diluted to a final concentration of 3000 eggs mL^−1. Concentrated sperm was collected ‘dry’, mixing samples from at least three different males and stocking undiluted at +4 °C. Sperm mix was diluted 10 μL in 10 mL SW just before insemination and an aliquot of circa 100 μL of this solution was added to 100 mL of egg suspension. At 2–4 min after sperm addition the eggs were checked for successful fertilization and excess sperm were removed by washing the eggs once with FSW.
PUAs and PUFAs were tested on sea urchin early development. […] All concentrations were tested on egg groups collected from three different females. Groups of eggs from the same animals were used as controls. To test the effect of the solvent, other groups of embryos were incubated in 10% methanol, which was the highest concentration of solvent used for incubation experiments. Embryos were kept at 20 °C in a controlled temperature chamber under 12:12 light:dark cycle. […]

[3] = tested on: Paracentrotus lividus embryos; assay: Embryotoxicity test: inhibition of first cell cleavage in sea urchin embryos; format: in vivo; settings: for Concentration at which arrest (100% blockage) of cell cleavage occurs: circa 90 min after fertilization, 20 °C
Experimental: as §1
PUAs and PUFAs were tested on sea urchin early development. […] All concentrations were tested on egg groups collected from three different females. Groups of eggs from the same animals were used as controls. To test the effect of the solvent, other groups of embryos were incubated in 10% methanol, which was the highest concentration of solvent used for incubation experiments. Embryos were kept at 20 °C in a controlled temperature chamber under 12:12 light:dark cycle.
Cleavage inhibition was assessed by counting at least 200 embryos for each well.
Statistical analysis and IC50 calculation were made by using the Prism software (GraphPad software inc. La Jolla, CA, USA).

pelagic copepods = tested on: pelagic copepods; parameters: method as in ref 28 = [28]; 28 Ianora A Romano G Carotenuto Y Esposito F Roncalli V Buttino I Miralto A Impact of the diatom oxylipin 15S-HEPE on the reproductive success of the copepod Temora stylifera Hydrobiologia 2010 submit; settings: printed equivalent 6.58 μM; cited from earlier work
Ciona intestinalis = tested on: Ciona intestinalis; parameters: method as in PMID 12874802; settings: printed equivalent 1.32 μM; cited from earlier work
early P. lividus embryos = tested on: early P. lividus embryos; parameters: method as in PMID 12939379; settings: cited from earlier work
[4] = Decadienal stability in nutrient enriched sea water (f/2 medium), spectrophotometric; format: physicochemical
Experimental: Decadienal stock solution was prepared by diluting a known amount of the substance (determined by weight) in methanol. The methanolic solution was further diluted in autoclaved f/2 medium to achieve decadienal concentration ranging from 0.66 to 32.89 μM. A standard curve was generated by reporting the absorbance at 274 nm of decadienal as a function of its concentration (each determination was performed in triplicate).
To verify decadienal stability, solutions were prepared in triplicate at a starting concentration of 8.96 μM in 250 mL f/2 and incubated in a polystyrene culture flask closed with a screw cap. The UV spectrum and absorbance reading at 274 nm were assessed with time. Decadienal concentration was determined on the basis of a standard curve.

[5] = tested on: Paracentrotus lividus embryos and pluteus larvae; assay: Teratogenic effect after 48 hours of incubation (abnormalities and mortality of larvae); format: in vivo
Experimental: PUAs were also tested for their teratogenic effect after long term incubations. After 48 hours of incubation with test compounds, the number of abnormalities and mortality were assessed according to Pagano et al.. Embryos at various stages were observed under a light microscope (Zeiss Axiovert 135TV). Pictures were taken using a Zeiss Axiocam connected directly to the microscope.

[6] = tested on: Paracentrotus lividus embryos and pluteus larvae; assay: TUNEL fluorescence labeling of apoptosis in larvae after 48 hours of exposure; format: in vivo
Experimental: P. lividus embryos were incubated as described above in decadienal at concentrations ranging from 1.32 to 6.58 μM for 48 hours. Pluteus larvae were fixed in paraformaldehyde 4% (SIGMA-Aldrich, Milan, Italy) in sea water for 2 hours at room temperature. Fixed sea urchin embryos were washed several times in phosphate saline buffer 10 mM at pH 7.4 (PBS) to remove paraformaldehyde and then incubated for 1 h in a solution of 0.1% Triton X-100 and 0.1% sodium citrate, at 4 °C. Apoptosis was assessed using TdT-mediated dUTP nick end labeling (TUNEL) (Roche Diagnostics) according to manufacturer’s instructions. After washing in PBS containing 1% bovine albumin serum (BSA, Sigma-Aldrich), treated samples were incubated at 37 °C for 90 min in TUNEL solution in a humidified chamber, in the dark. Control embryos were fixed and stained as described above. To obtain TUNEL-positive control samples, embryos were incubated for 10 min in 50 mM Tris-HCl, pH 7.5, 10 mM MgCl2, 0.1% dithiothreitol, containing 250 μg mL^−1 DNase I (grade II from bovine pancreas; Boehringer GmbH, Mannheim, Germany) at room temperature. Negative controls were obtained by incubating embryos in label solution only, as recommended by the manufacturer. […] Pictures were taken using a Zeiss Axiocam connected directly to the microscope.

[7] = tested on: Paracentrotus lividus embryos; parameters: method as in ref 18 = [18]; 18 Sellem F Pesando D Bodennec G El Abed A Girard JP Toxic effects of Gymnodinium cf. mikimotoi unsaturated fatty acids to gametes and embryos of the sea urchin Paracentrotus lividus Water Res 2000 34; settings: P. lividus; cited from earlier work

O=C/C=C/C=C\CCCC(=O)O [9-oxo-nona-5Z,7E-dienoic acid, reference compound]
Activity on embryo cleavage ([1]; S. granularis embryos): not inhibitory

CCC=CCC=CCC=CCC=CCC=CCC=CCCC(=O)O [DHA, 4,7,10,13,16,19-docosahexaenoic acid]
Effect on the transition to swimming blastula / larval stage [2]: interfered with the transition to the larval stage | Percentage of embryos that underwent first cleavage ([3]; at 304 μM, 90 min after fertilization): 34%

CC/C=C\C/C=C\C/C=C\C/C=C\C/C=C\CCCC(=O)OC [EPA methyl-ester]
Concentration of total inhibition of hatching viability (0% of hatched larvae) [2]: 158 µM | Activity on cleavage compared with EPA ([3]; in vivo): drastic reduction in the activity

CCC=CCC=CCC=CCC=CCC=CCCCC(=O)O [EPA, 5,8,11,14,17-eicosapentaenoic acid]
Concentration of total inhibition of hatching viability (0% of hatched larvae) [2]: approximately 83 μM | Effect on the transition to swimming blastula / larval stage [2]: interfered with the transition to the larval stage | Concentration at which arrest (100% blockage) of cell cleavage occurs ([3]; circa 120 eggs mL−1): 331 µM

CCCCC/C=C/C=C/C=O [decadienal, 2-trans,4-trans-decadienal]
Concentration of total inhibition of hatching viability (0% of hatched larvae) [2]: 3.95 µM | Hatching viability [2]: < 50% | IC50 ([3]; 95% CI = 2.96 to 3.06 μM, circa 120 eggs mL−1): 3.01 µM | Concentration at which arrest (100% blockage) of cell cleavage occurs ([3]; circa 120 eggs mL−1): 5.26 µM | Concentration to induce malformations and apoptosis (pelagic copepods): 1000 ng/mL | Minimum dose to inhibit 100% of embryo cleavage ([1]; S. granularis embryos): about 20 μM | IC50 ([1]; S. granularis embryos, read-out: IC50 of cleavage inhibition): 7.3 µM | IC50 ([1]; S. granularis, low egg density, read-out: IC50 of blockage of cell divisions in newly fertilized eggs): 1.3 µM | Sub-lethal concentration inducing abnormal tadpole larvae (Ciona intestinalis): 0.2 µg/mL | Concentration inducing apoptosis relative to the dose required to induce 100% cleavage inhibition (early P. lividus embryos): five | Decadienal concentration in f/2 medium ([4]; after 24 hours (start of the gradual decrease), 8.96 μM starting concentration): 7.92 (±0.3 SD) μM | Change of initial concentration ([4]; after 24 hours, f/2 medium, 8.96 μM starting concentration): 11.70% | Decadienal concentration in f/2 medium ([4]; after seven days of incubation, natural light, 20 °C, closed vessel, 8.96 μM starting concentration): 4.63 (±0.017) μM | Time for which the aldehyde can be detected spectrophotometrically ([4]; f/2 medium): up to 14 days | Time without significant change of the initial concentration ([4]; f/2 medium, 8.96 μM starting concentration, closed flask, 20 °C): at least six | Abnormal plutei ([5]; 1.32 μM, 48 hours, ± SD): 11.08% ± 4.4 | Retarded larvae ([5]; 1.32 μM, 48 hours, ± SD): 11.64% ± 8.2 | Dead and pre-hatching embryos ([5]; 2.63 μM, 48 hours, ±22.42 SD): up to 29.4% | Dead embryos ([5]; 3.95 μM, 48 hours, ± SD): 53.7% (±24.7 SD) | Embryos not able to survive ([5]; 5.26 μM, 48 hours, ± SD): 85.1% (±24.7 SD) | Concentration at which embryos were unable to develop beyond the blastula stage ([5]; in vivo): ≥ 3.95 µM | Sub-lethal concentrations that increased abnormal plutei and delayed development ([5]; newly fertilized eggs, 48 hours): 1.32 to 5.26 µM | Number of embryos presenting a high degree of apoptosis (TUNEL) ([6]; 1.32 μM): more or less the same as in the control | Larvae TUNEL-positive in the entire body ([6]; 2.63 μM): approximately 80% | Larvae TUNEL-positive ([6]; 3.95 μM): almost all of the larvae were positively stained

CC/C=C/C=C/C=O [heptadienal, 2-trans,4-trans-heptadienal]
Concentration of total inhibition of hatching viability (0% of hatched larvae) [2]: 11.36 µM | Hatching viability [2]: > 90% | Concentration at which arrest (100% blockage) of cell cleavage occurs ([3]; circa 120 eggs mL−1): 27.27 µM

CCCCCC=CCC=CCCCCCCCC(=O)O [linoleic, 9,12-octadecadienoic acid]
Hatching (percentage of embryos) ([2]; at 357 μM): 60% | Activity on cleavage ([3]; highest concentration tested 357 μM, 90 min after fertilization): no activity

CCC=CCC=CCC=CCC=CCC=CCC(=O)O [octadecapentaenoic acid]
Concentration of total blockage of first cleavage [7]: ≥ 1 mM

CCC/C=C/C=C/C=O [octadienal, 2-trans,4-trans–octadienal]
Concentration of total inhibition of hatching viability (0% of hatched larvae) [2]: 8.08 µM | Hatching viability [2]: > 90% | Concentration at which arrest (100% blockage) of cell cleavage occurs ([3]; circa 120 eggs mL−1): 16.13 µM

C=CC/C=C/C=C/C=O [octatrienal, 2-trans,4-trans,7-octatrienal]
Concentration at which arrest (100% blockage) of cell cleavage occurs ([3]; circa 120 eggs mL−1): 11.47 µM

CCC=CCC=CCC=CCC=CCCCCC(=O)O [stearidonic acid, 6,9,12,15-octadecatetraenoic acid]
Effect on the transition to swimming blastula / larval stage [2]: interfered with the transition to the larval stage | Concentration at which arrest (100% blockage) of cell cleavage occurs ([3]; circa 120 eggs mL−1): 181 µM

CCCCCCCCCCCCC=O [tridecanal]
Effect on first cleavage ([3]; up to 25 μM, higher concentrations not tested due to solubility problems in sea water): did not interfere with first cleavage

CCCCCC=CCC=CCC=CCCCCC(=O)O [γ-linolenic, 6,9,12-octadecatrienoic acid]
Hatching (percentage of embryos) ([2]; at 360 μM): 50% | Activity on cleavage ([3]; highest concentration tested 359 μM, 90 min after fertilization): no activity

Source: article PMC2866470, “Teratogenic Effects of Diatom Metabolites on Sea Urchin Paracentrotus lividus Embryos” (Marine Drugs, 2010)
